Experimental data reported in the NIST ThermoML archive (doi:10.1016/j.fluid.2007.10.016).
Numbers after ± are expanded uncertainties.

Columns and labels:
[1] = Liquid; for mass density: 298.15 K, 101.33 kPa; for vapor or sublimation pressure: Ebulliometric method (Recirculating still)
[2] = refractive index (Na D-line) (dimensionless); conditions: 298.15 K; 101.33 kPa; Liquid; Standard Abbe refractometry

Row | mass density [1] [kg/m3] | vapor or sublimation pressure ([1]; 330 K) [kPa] | vapor or sublimation pressure ([1]; 340 K) [kPa] | refractive index [2] | SMILES
1 | 687.79 ± 0.41 | 25.47 ± 0.14 | 36.64 ± 0.19 | 1.38894 ± 0.00072 | CC(C)CC(C)(C)C [2,2,4-trimethylpentane]
2 | 780.91 ± 0.31 | 33.25 ± 0.19 | 52.97 ± 0.26 | 1.37504 ± 0.00072 | CC(C)O [propan-2-ol]
3 | 799.55 ± 0.45 | 27.69 ± 0.16 | 40.45 ± 0.2 | 1.3862 ± 0.00072 | CC(=O)C(C)C [3-methyl-2-butanone]
